Measured values: paper PMC4335544 (Critical Care, 2015)

What was measured:
[1] = octanol/water; ref 13-16 (Drug Bank); cited from earlier work
[2] = Spontaneous drug degradation in control polypropylene tubes (whole blood); type: in vitro ADME; settings: human whole blood, polypropylene tubes under agitation at 25°C, up to 48 hours; HPLC-UV or immuno-enzymatic method
[3] = 37°C, 4.5 L/minute
Method: Whole ECMO circuits (Maquet®, Orleans, France) comprising a Quadrox® membrane oxygenator, a centrifugal pump, a heat exchanger and PVC tubing were used for ex vivo tests. All components of the circuit were treated with heparin (Bioline coating®, Maquet). Drug-free human whole blood (800 mL) was used to prime the circuit. In order to replicate the in vivo operating conditions, the temperature of the circulating blood was set at 37°C and circuit flow rate at 4.5 L/minute.
During ex vivo ECMO runs, serial post-membrane blood samples were obtained at 30 minutes, 1 hour, 2 hours, 3 hours, 4 hours, 5 hours, 24 hours and 48 hours after drug introduction into the circuit. Until analysis, samples were kept at 4°C and plasma separated and frozen at −20°C. To determine spontaneous drug degradation, blood containing identical concentrations of the drugs studied was kept in polypropylene tubes under agitation at 25°C for the same time before measurements.
Propofol and midazolam concentrations were measured using high performance liquid chromatography with an ultra-violet detector (Waters, Milford, MA, USA).
Changes of mean drug concentrations over time were compared between control and experimental conditions by modeling using a linear mixed effect model. […] Model choice was guided by the lowest Akaike criteria value. The mixed effect model was then fitted with R software version 3.0.2 and the ‘nlme’ library [10].

[4] = cited from earlier work
From the text: Vancomycin, which is the drug of choice for treating beta-lactam resistant Gram-positive bacteria, is frequently prescribed to ECMO patients.

[5] = Method: To further explore the role of temperature, oxygen exposure and PVC surfaces on propofol loss in the ECMO circuit, the following experiments were conducted. A polypropylene tube containing human whole blood was spiked with the propofol stock solution to obtain a concentration of […]. The effect of the temperature, oxygen exposure and contact with PVC surfaces were assessed by incubating the tube at 37°C, applying oxygen (1 L/minute) for 10 seconds to the preparation and by distributing the preparation into 5-cm PVC tubes, respectively. Polypropylene tubes containing blood and propofol at the same concentration were stored at room temperature and were used as controls. Propofol concentrations were measured at 0 minutes, 5 minutes, 10 minutes, 15 minutes, 20 minutes, 25 minutes, 30 minutes and 45 minutes from each preparation. These experiments were conducted in triplicate.

Molecule | Partition coefficient (log P) [1] | concentration over time in control polypropylene tubes [2] | baseline concentration detected in ECMO circuit ([3]; at 30 minutes, human whole blood, HPLC-UV, mean of n = 3 circuits) | baseline concentration remaining in ECMO circuit ([3]; at 24 hours, human whole blood, midazolam HPLC-UV, cyclosporine immuno-enzymatic method, mean of n = 3 circuits) | decrease in concentration, used circuit ([4]; circuit which had been running for five days, ref 3 (Dagan et al.)) | decrease in concentration, new circuit ([4]; drug introduced in a new circuit, ref 3 (Dagan et al.)) | levels in ECMO circuit, result in words ([4]; ex vivo models, 24 hours, ref 20 (Mehta et al.), ref 19 (Shekar et al.)) | decrease in concentration, neonatal and pediatric circuits ([4]; neonatal and pediatric circuits, ref 6 (Wildschut et al.)) | concentration in ECMO circuit, result in words ([3]; during the 48 hours of the protocol, human whole blood, immuno-enzymatic method, n = 3 circuits) | loss of propofol on contact with PVC tubing ([5]; after 45 minutes, human whole blood distributed into 5-cm PVC tubes, propofol 2 μg/L as printed, mean of n = 3) | loss of propofol on oxygen exposure ([5]; after 45 minutes, human whole blood in polypropylene tube, oxygen 1 L/minute for 10 seconds, propofol 2 μg/L as printed, mean of n = 3) | effect of heating to 37°C on propofol concentration ([5]; polypropylene tube with human whole blood at 37°C, up to 45 minutes, n = 3) | baseline concentration lost in ECMO circuit ([3]; 30 minutes after introduction, Maquet circuit, Quadrox oxygenator, PVC tubing, heparin coating, 800 mL human whole blood, propofol 2 μg/mL, HPLC-UV, mean of n = 3 circuits) | initial concentration remaining in ECMO circuit ([3]; after 5 hours, human whole blood, HPLC-UV, mean of n = 3 circuits) | fraction remaining in ECMO circuit ([3]; beyond 24 hours, human whole blood, HPLC-UV, n = 3 circuits)
Cc1ncc2n1-c1ccc(Cl)cc1C(c1ccccc1F)=NC2 [Midazolam] | 3.9 | remained stable | 54% | 11% |  |  |  |  |  |  |  |  |  |  | 
Vancomycin |  | remained stable |  |  | 11% | 36% | remained unchanged | up to 46% | remained stable |  |  |  |  |  | 
CC(C)c1cccc(C(C)C)c1O [Propofol] | 4.0 | remained stable |  |  |  |  |  |  |  | 85% | 70% | no effect | 70% | 11% | negligible
